Experimental data reported in article PMC8151276, “An Integrated Approach toward NanoBRET Tracers for Analysis of GPCR Ligand Engagement” (Molecules, 2021).

Target: T1, LTB4R (Homo sapiens, UniProt Q15722)
T1 construct: purchased Promega (in-house HiBiT-GPCR construct library, NanoBRET)
Test: NanoBRET screen HiBiT-LTB4R in HEK293
Format: binding
Experimental: Each tracer candidate was screened across the entire library of HiBiT-GPCR constructs using NanoBRET as the detection modality. As depicted in Figure 4A, the specificity of interactions was evaluated through decrease in BRET due to competitive displacement of a bound tracer by excess parental compound. Each tracer was analyzed for binding to each HiBiT-GPCR fusion in the absence and in the presence of competing parental compound. Briefly, HEK293 cells were transfected with HiBiT-GPCR constructs diluted into promoterless DNA to reduce expression and maximize translocation to the cell surface. Each tracer candidate was then screened at concentrations of 1 μM and 0.1 μM across cells expressing these fusions. Cells were treated for 1.5 h with tracer either alone or in the presence of 20 μM competing parental compound (i.e., control). BRET was measured upon addition of purified LgBiT and subsequent complementation with HiBiT genetically fused to a GPCR. The specificity of interactions was assessed through a decrease in BRET signal due to competitive displacement of the bound tracer. To further gauge the robustness of these interactions, the fold response over the control (i.e., BRETtracer/BRETcontrol) was calculated. We chose a 1.5-fold response, which translates to ≥7-fold signal over noise as the minimal threshold required to score an interaction as positive. […]. Below we highlight the screening results obtained for our exemplary fluorescent tracers based on Clozapine, Amitriptyline and AZD1283.
HiBiT-GPCR DNA constructs were diluted in 10 mM Tris pH 8 to a final concentration of 0.01 μg/μL, arrayed in 96-well plates and stored at −20 °C. For transfection, HEK293 cells were suspended in Opti-MEM (without phenol red) supplemented with 2% fetal bovine serum (Seradigm) and 100 units/mL penicillin–streptomycin (Gibco) at a final concentration of 220,000 cells/mL and dispensed into white 96-well plates at 90 μL/well. Subsequent transfections and screens were carried using an Agilent Bravo Automated Liquid Handling Platform. First, the 96-well HiBiT DNA arrays were diluted 25-fold in Opti-MEM (without serum or phenol red) to a final concentration of 0.0004 μg/μL and 20 μL of the diluted DNAs were transferred into new 96-well plates. Next, promoterless carrier DNA (1 μg/μL) was diluted 25-fold (0.04 μg/μL) and then dispensed into the diluted arrays at 20 μL/well. Following brief mixing, Viafect transfection reagent (Promega) diluted 16-fold into Opti-MEM was dispensed into the plates at 40 μL/well. After mixing by pipetting, plates were incubated for 10 min on the pipetting station deck. The DNA-transfection reagent complexes were then added to plates containing cells. To facilitate the screen, 10 μL of DNA-transfection reagent complexes were added in duplicates to the top 4 and bottom 4 rows, resulting in two identical 48-well arrays per plate. Plates with transfected cells were incubated for 18–20 h at 37 °C/5% CO2. A screen of each tracer across the entire library using two different concentrations requires duplicate plates of transfected cells. Depending on the number of tracers being screened, transfections can be scaled up using the same ratios. The next day, for each tracer, four 20× screening solutions in tracer dilution buffer (Promega) were prepared: two duplicates at final concentration of 20 μM and two duplicates at a final concentration of 2 μM. A competing unmodified compound was added to one of each duplicate at a final concentration of 400 μM. The four resulting solutions were diluted 4-fold in Opti-MEM without serum or phenol red to generate 5× solutions (5 µM and 0.5 µM tracer +/− 100 μM competing compound). To screen the library, a BioTek MultiFlo FX liquid dispenser was used to dispense 22.5 µL of tracer solution to the top 4 rows and 22.5 µL tracer + competing compound solution to the 4 bottom rows. Plates were briefly mixed on an orbital shaker and incubated for 1.5 h at room temperature. […]

T1 sequence (Q15722 whole entry): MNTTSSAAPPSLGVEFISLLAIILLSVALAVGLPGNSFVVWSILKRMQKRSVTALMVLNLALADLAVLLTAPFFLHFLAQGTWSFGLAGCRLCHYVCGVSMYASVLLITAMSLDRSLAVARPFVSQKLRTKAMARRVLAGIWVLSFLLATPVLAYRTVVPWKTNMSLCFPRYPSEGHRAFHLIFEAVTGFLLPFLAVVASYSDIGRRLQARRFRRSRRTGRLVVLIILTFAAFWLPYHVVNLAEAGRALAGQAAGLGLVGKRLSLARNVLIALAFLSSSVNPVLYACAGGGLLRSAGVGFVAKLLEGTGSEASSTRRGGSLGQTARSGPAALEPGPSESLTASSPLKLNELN

| SMILES | NanoBRET Fold Response (LTB4R, tracer 0.1μM) | NanoBRET Fold Response (LTB4R, tracer 1μM) | other results |
| --- | --- | --- | --- |
| CCOC(=O)c1cc(C#N)c(N2CCC(C(=O)NS(=O)(=O)Cc3ccccc3/C=C/C(=O)NCCNC(=O)CCc3ccc4n3[B-](F)(F)[N+]3=C(c5ccc[nH]5)C=CC3=C4)CC2)nc1C [AZD1283-1-NB590] | – | – | NanoBRET Fold Response (LTB4R, 0.1μM): 1.16; NanoBRET Fold Response (LTB4R, 1μM): 1.16 |
| N#CN=C(NCCCOc1cccc(CN2CCCCC2)c1)NCCNC(=O)CCOCCOCCOCCOCCNC(=O)CCc1ccc2n1[B-](F)(F)[N+]1=C(c3ccc[nH]3)C=CC1=C2 [Aminopotentidine-2-NB590] | 1.03 | 0.99 | – |
| CN(C)CCC=C1c2ccccc2CCc2ccc(C(=O)NCCNC(=O)CCOCCOCCOCCOCCNC(=O)CCc3ccc4n3[B-](F)(F)[N+]3=C(c5ccc[nH]5)C=CC3=C4)cc21 [Amitriptyline-a-2-NB590] | – | – | NanoBRET Fold Response (tracer at 0.1μM): 1.02; NanoBRET Fold Response (tracer at 1μM): 1.00 |
| CN(C)CCC=C1c2ccccc2CCc2ccc(C(=O)NCCNC(=O)CCOCCOCCOCCOCCNC(=O)CCc3ccc4n3[B-](F)(F)[N+]3=C(c5ccc[nH]5)C=CC3=C4)cc21 [Amitriptyline-b-2-NB590] | – | – | NanoBRET Fold Response (tracer at 1μM, listed as amitriptyline-b-2-NB590): 1.02 |
| CN(CCC=C1c2ccccc2CCc2ccccc21)C(=O)CCOCCOCCOCCOCCNC(=O)CCc1ccc2n1[B-](F)(F)[N+]1=C(c3ccc[nH]3)C=CC1=C2 [Amitriptyline-e-2-NB590] | – | – | NanoBRET Fold Response (tracer at 1μM): 1.03 |
| COc1ccc2c(n1)c(CCNC(C)=O)cn2CCNC(=O)CCc1ccc2n1[B-](F)(F)[N+]1=C(c3ccc[nH]3)C=CC1=C2 [Azamelatonin-1-NB590] | – | – | NanoBRET Fold Response (0.1μM tracer): 0.97; NanoBRET Fold Response (1μM tracer): 0.97 |
| COc1ccc2[nH]c(-c3ccc(CNC(=O)CCOCCOCCOCCOCCNC(=O)CCc4ccc5n4[B-](F)(F)[N+]4=C(c6ccc[nH]6)C=CC4=C5)cc3)c(CCNC(C)=O)c2n1 [AzomelatoninICO9-2-NB590] | – | – | NanoBRET Fold Response (0.1μM tracer): 1.07; NanoBRET Fold Response (1μM tracer): 0.99 |
| O=C(CCOCCOCCOCCOCCNC(=O)CCc1ccc2n1[B-](F)(F)[N+]1=C(c3ccc[nH]3)C=CC1=C2)NCCCN1CCN(C2=Nc3cc(Cl)ccc3Nc3ccccc32)CC1 [Clozapine-a-2-NB590] | – | – | NanoBRET Fold Response (LTB4R, 0.1μM tracer): 1.05; NanoBRET Fold Response (LTB4R, 1μM tracer): 0.94 |
| CN1CCN(C2=Nc3cc(Cl)ccc3Nc3ccc(CNC(=O)CCOCCOCCOCCOCCNC(=O)CCc4ccc5n4[B-](F)(F)[N+]4=C(c6ccc[nH]6)C=CC4=C5)cc32)CC1 [Clozapine-b-2-NB590] | – | – | NanoBRET Fold Response (LTB4R, 0.1μM tracer): 1.04; NanoBRET Fold Response (LTB4R, 1μM tracer): 1.04 |
| CN1CCN(C2=Nc3cc(Cl)ccc3N(CC(=O)NCCOCCOCCOCCOCCNC(=O)CCc3ccc4n3[B-](F)(F)[N+]3=C(c5ccc[nH]5)C=CC3=C4)c3ccccc32)CC1 [Clozapine-c-2-NB590] | – | – | NanoBRET Fold Response (LTB4R, 0.1μM tracer): 1.05; NanoBRET Fold Response (LTB4R, 1μM tracer): 0.95 |
| O=C(CCOCCOCCOCCOCCNC(=O)CCc1ccc2n1[B-](F)(F)[N+]1=C(c3ccc[nH]3)C=CC1=C2)NCCCN1CCN(C2=Nc3ccccc3Oc3ccc(Cl)cc32)CC1 [Loxapine-a-2-NB590] | 1.05 | 0.96 | – |
| COc1ccccc1N1CCN(CCCCN2C(=O)c3ccc(CNC(=O)CCOCCOCCOCCOCCNC(=O)CCc4ccc5n4[B-](F)(F)[N+]4=C(c6ccc[nH]6)C=CC4=C5)cc3C2=O)CC1 [NAN-190-2-NB590] | – | 0.96 | – |
| COc1ccccc1N1CCN(CCCCN2C(=O)c3ccc(CNC(=O)CCOCCNC(=O)c4ccc(CNC(=O)CCc5ccc6n5[B-](F)(F)[N+]5=C(c7ccc[nH]7)C=CC5=C6)cc4)cc3C2=O)CC1 [NAN-190-3-NB590] | 1.02 | 1.09 | – |
| O=C(CCc1ccc2n1[B-](F)(F)[N+]1=C(c3ccc[nH]3)C=CC1=C2)NCc1ccc(C(=O)NCCOCCC(=O)N[C@@H]2CC[C@@]3(O)[C@H]4Cc5ccc(O)c6c5[C@@]3(CCN4CC3CC3)[C@H]2O6)cc1 [Naltrexone-3-NB590] | 0.68 | 1.06 | – |
| Cc1cc2c(s1)Nc1ccccc1N=C2N1CCN(CCCNC(=O)CCOCCOCCOCCOCCNC(=O)CCc2ccc3n2[B-](F)(F)[N+]2=C(c4ccc[nH]4)C=CC2=C3)CC1 [Olanzapine-a-2-NB590] | 1.02 | 1.03 | – |
| O=C(CCc1ccc2n1[B-](F)(F)[N+]1=C(c3ccc[nH]3)C=CC1=C2)NCc1ccc(C(=O)NCCOCCOCCNCC(O)COc2cccc3ccccc23)cc1 (stereo not drawn) [Propranolol-3-NB590] | – | – | NanoBRET Fold Response (LTB4R, 0.1μM): 0.97; NanoBRET Fold Response (LTB4R, 1μM): 1.02 |
| O=C(CCc1ccc2n1[B-](F)(F)[N+]1=C(c3ccc[nH]3)C=CC1=C2)NCCOCCOCCNC(=O)OCCOCCN1CCN(C2=Nc3ccccc3Sc3ccccc32)CC1 [Quetiapine-a-2-NB590] | 1.27 | 1.40 | – |
| Cc1nc2n(c(=O)c1CCN1CCC(c3noc4cc(F)ccc34)CC1)CCCC2OC(=O)NCCOCCOCCOCCOCCNC(=O)CCc1ccc2n1[B-](F)(F)[N+]1=C(c3ccc[nH]3)C=CC1=C2 (stereo not drawn) [Risperidone-2-NB590] | 1.03 | 1.00 | – |
| CC(C)N(CC[C@H](c1ccccc1)c1cc(CCNC(=O)CCOCCOCCOCCOCCNC(=O)CCc2ccc3n2[B-](F)(F)[N+]2=C(c4ccc[nH]4)C=CC2=C3)ccc1O)C(C)C [Tolterodine-2-NB590] | 0.92 | 0.96 | – |
| CC(C)N(CC[C@H](c1ccccc1)c1cc(CCNC(=O)c2ccc(CNC(=O)CCc3ccc4n3[B-](F)(F)[N+]3=C(c5ccc[nH]5)C=CC3=C4)cc2)ccc1O)C(C)C [Tolterodine-BZ-NB590] | 0.95 | 1.03 | – |
| CCCn1c(=O)c2[nH]c(-c3ccc(OCC(=O)NCCNC(=O)CCOCCNC(=O)c4ccc(CNC(=O)CCc5ccc6n5[B-](F)(F)[N+]5=C(c7ccc[nH]7)C=CC5=C6)cc4)cc3)nc2n(CCC)c1=O [XAC-3-NB590] | 1.09 | 1.11 | – |
